Where two headings read alike, the source gives them in different places.
Assays:
AR [1] = biological target: T1, AR (Rattus norvegicus, UniProt P15207)
T1 sequence (P15207 1-902): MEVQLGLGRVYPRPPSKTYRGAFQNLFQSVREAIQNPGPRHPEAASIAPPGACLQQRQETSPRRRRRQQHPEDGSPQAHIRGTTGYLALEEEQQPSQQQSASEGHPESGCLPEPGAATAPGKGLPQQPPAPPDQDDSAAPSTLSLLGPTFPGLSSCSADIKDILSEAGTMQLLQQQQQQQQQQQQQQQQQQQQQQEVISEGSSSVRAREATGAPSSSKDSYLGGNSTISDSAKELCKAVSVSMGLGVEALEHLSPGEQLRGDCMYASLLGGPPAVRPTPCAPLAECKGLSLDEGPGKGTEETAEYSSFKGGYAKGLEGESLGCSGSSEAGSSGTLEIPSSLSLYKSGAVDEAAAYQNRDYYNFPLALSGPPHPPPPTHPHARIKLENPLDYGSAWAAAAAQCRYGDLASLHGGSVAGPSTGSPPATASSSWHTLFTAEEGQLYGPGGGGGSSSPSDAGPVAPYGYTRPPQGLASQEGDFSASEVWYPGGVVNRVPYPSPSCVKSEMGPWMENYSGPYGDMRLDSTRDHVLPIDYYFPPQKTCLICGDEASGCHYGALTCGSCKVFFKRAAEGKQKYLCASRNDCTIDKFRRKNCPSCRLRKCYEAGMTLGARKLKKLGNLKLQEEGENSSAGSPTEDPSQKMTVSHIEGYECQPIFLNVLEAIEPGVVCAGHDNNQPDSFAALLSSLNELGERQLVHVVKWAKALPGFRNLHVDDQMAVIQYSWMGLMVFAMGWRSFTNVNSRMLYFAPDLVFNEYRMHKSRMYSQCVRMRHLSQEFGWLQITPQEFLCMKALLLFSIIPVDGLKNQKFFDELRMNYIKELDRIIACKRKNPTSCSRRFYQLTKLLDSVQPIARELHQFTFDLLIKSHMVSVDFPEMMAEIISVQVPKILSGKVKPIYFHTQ
Description: The basis of this assay lies in the well-defined action of androgenic agents on the maintenance and growth of muscle tissues and sexual accessory organs in animals and man. […] J. Anat. […] I. Quantitative data” Boll.-Soc. Ital. Biol. Sper. […] II. Electron-microscopic observations” Boll.-Soc. Ital. Biol. Sper. […] Castration results in rapid involution and atrophy of the prostate and seminal vesicles. This effect can be reversed by exogenous addition of androgens. Since both the levator ani muscle and the male sex organs are the tissues most responsive to the effects of androgenic agents, this model is used to determine the androgen dependent reversal of atrophy in the levator ani muscle and the sex accessory organs in immature castrated rats. […] Control vehicle • 2.
The gain and loss of sexual organ weight reflect the changes of the cell number (DNA content) and cell mass (protein content), depending upon the serum androgen concentration. […] Therefore, measurement of organ wet weight is sufficient to indicate the bioactivity of androgens and androgen antagonist.

AR [2] = biological target: T1, AR; remark: listed apart in the source
glucocorticoid receptor = glucocorticoid receptor (Homo sapiens, UniProt P04150); settings: concentration of ≦10 μM; 10 ng/ml PMA; A549 cells
glucocorticoid receptor, sequence (P04150 whole entry): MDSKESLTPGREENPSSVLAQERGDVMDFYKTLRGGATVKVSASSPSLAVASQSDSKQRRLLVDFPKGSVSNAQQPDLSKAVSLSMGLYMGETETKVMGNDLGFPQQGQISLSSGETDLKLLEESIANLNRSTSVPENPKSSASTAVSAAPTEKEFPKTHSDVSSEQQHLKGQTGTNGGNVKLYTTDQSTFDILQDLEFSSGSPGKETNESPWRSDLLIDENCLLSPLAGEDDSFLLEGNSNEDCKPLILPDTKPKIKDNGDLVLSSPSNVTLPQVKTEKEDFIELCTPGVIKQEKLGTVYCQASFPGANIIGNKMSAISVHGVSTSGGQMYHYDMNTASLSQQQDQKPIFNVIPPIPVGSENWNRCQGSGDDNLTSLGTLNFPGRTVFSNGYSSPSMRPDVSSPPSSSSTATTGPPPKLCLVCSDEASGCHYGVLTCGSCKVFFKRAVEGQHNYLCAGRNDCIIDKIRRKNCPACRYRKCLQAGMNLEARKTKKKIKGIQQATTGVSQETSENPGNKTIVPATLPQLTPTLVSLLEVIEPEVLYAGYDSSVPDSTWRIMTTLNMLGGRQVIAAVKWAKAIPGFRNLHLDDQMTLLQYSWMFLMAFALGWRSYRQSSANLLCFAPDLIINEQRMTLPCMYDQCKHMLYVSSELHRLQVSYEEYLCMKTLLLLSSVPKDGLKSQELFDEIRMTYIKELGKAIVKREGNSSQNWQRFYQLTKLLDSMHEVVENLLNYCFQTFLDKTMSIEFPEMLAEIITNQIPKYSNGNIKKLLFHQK
Description: Cells are plated the day before the assay at approximately 40000 cells/well. […] Activity is measured by analysis in a luminometer as compared to control experiments treated with buffer or dexamethasome.

[3] = system: wild type AR (MDA 453 cells); settings: read-out: Kd for [3H]-DHT, Scatchard analysis
Description: For the saturation analysis, the difference between the total binding and the non-specific binding, is defined as specific binding.
[formula] After correcting for non-specific binding, IC50 values are determined. […]

CCC(=O)O[C@H]1CC[C@H]2[C@@H]3CCC4=CC(=O)CC[C@]4(C)[C@H]3CC[C@]12C [TP, testosterone propionate]
potency relative to free T (AR [1]; TP versus free T): 10-30 fold
EC50 (increase in organ weight) (AR [1]; castrated rats, dosing for 3 days): ~0.03 mg
potency relative to free T (AR [2]; TP versus free T): 10-30 fold
ED80 (AR [2]; immature castrated rat model): 0.1 mg
EC50 (increase in organ weight) (AR [2]; immature castrated rats, dosing for 3 days): ~0.03 mg

C[C@@H]1C[C@H]2[C@@H]3CCC4=CC(=O)C=C[C@]4(C)[C@@]3(F)[C@@H](O)C[C@]2(C)[C@@]1(O)C(=O)CO [dexamethasone]
suppression of activity (% inhibition of the reporter system vs buffer control with PMA) (glucocorticoid receptor): 65%

tritiated dihydrotestosterone [[^3H]-DHT]
Kd [3]: 0.7 nM

From patent US7235563B2, “Spirocyclic compounds useful as modulators of nuclear hormone receptor function” (Bristol-Myers Squibb Company, priority 2004, dated 2007)
